Tests used:
[1] = buffer
X. laevis tadpoles [2] = experiment: animal or person; assay type: in vivo; settings: for EC50: Xenopus laevis, read-out: EC50 (95% CI); for observable toxicity in tadpoles / pharmacological end point in tadpoles: in vivo
Method: (§1) Behavioral activity was initially determined in albino X. laevis tadpoles (stages 45–47) as described previously ([29], [33]). All animal care and experimental procedures involving X. laevis tadpoles were carried out according to a protocol approved by the IACUC of the University of Pennsylvania.

[3] = Physicochemical properties (density)
X. laevis tadpoles [4] = experiment: In vivo photolabeling in tadpoles (recovery after UV irradiation); design: species or system Xenopus laevis; settings: 12 μM for 30 min, then 10 min low intensity UV irradiation
Method: Tadpoles were then exposed to 10 min of low intensity UV irradiation or were maintained as a 10-min non-UV irradiation control.
as §1

horse spleen apoferritin [5] = biological target: T1, horse spleen apoferritin (Equus caballus, UniProt P02791); experiment: 1-AMA displacement fluorescence assay; assay type: binding
T1 construct: soluble protein model horse spleen apoferritin; from tissue; host or cells: horse spleen
T1 sequence (P02791 2-175 limits assumed): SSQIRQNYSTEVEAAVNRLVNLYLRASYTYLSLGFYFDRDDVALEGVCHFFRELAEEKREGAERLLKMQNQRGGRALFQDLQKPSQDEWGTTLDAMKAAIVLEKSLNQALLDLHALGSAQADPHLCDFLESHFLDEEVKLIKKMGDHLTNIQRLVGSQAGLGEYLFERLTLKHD
Method: 1-AMA fluorescence inhibition has been reported as a reliable measurement of anesthetic occupation of the horse spleen apoferritin anesthetic site ([64]). 1-AMA displacement studies were conducted as described previously ([29]). The fluorescence intensity versus concentration data were fitted to variable slope Hill models to obtain the IC50 and Hill slope. The KD value was calculated using the Cheng-Prusoff equation to correct for the presence of the 1-AMA competitors.

horse spleen apoferritin [6] = biological target: T1, horse spleen apoferritin; experiment: Isothermal titration calorimetry binding to apoferritin; settings: one-site model, read-out: KD (95% CI), ITC
Method: Isothermal titration calorimetry isotherms for binding to soluble protein model horse spleen apoferritin were conducted as reported previously ([31]) and were resolved using a VP-isothermal titration calorimetry microcalorimeter (MicroCal, Inc., Northampton, MA). Origin 5.0 software was used to best-fit thermodynamic parameters to the heat profiles.

GABAA receptor subunits = experiment: Western blotting of streptavidin-captured GABAA receptor subunits with ligand protection; assay type: binding, mouse; settings: AziPm-click (1) 10 μM, protecting ligand 100 μM, UV irradiation; n = 4
Method: (§2) Synaptosomes were resuspended to 1 mg of protein/ml in HEPES buffer medium (in mM: 140 NaCl, 5 KCl, 5 NaHCO3, 1.2 NaH2PO4, 1 MgCl2, 10 glucose, and 10 HEPES (pH 7.4)). […] The samples were allowed to equilibrate for 5 min before being transferred to a parafilm-sealed 1-mm path length quartz cuvette. The sample was then irradiated for 20 min at a peak bandwidth of 350 nm (Rayonet RPR-3500 lamp) ∼6 cm from the light source. Non-irradiated samples were left in the dark at ambient temperature (22–25 °C) for 20 min. All remaining procedures were conducted with restricted light exposure.
To 750 μg of photolabeled or control synaptosome samples, 40 μl of 10% SDS and 2 μl of 5 mM DTT in water were added. Samples were then vortexed, heated for 10 min at 65 °C, and then briefly cooled. Final concentrations of 150 μM azide-biotin (Click Chemistry Tools), 2 mM tris(3-hydroxypropyltriazolylmethyl)amine (Sigma), 1 mM ascorbic acid (Sigma), and 1 mM CuSO4·5H2O (Sigma) were added to each sample and vortexed vigorously. The samples were left in the dark at ambient temperature (22–25 °C) for 1 h with mild agitation. Directly to each sample 4× volume chilled methanol, 1.5× chilled chloroform, and 3× chilled double distilled H2O were added. Samples were vortexed vigorously and centrifuged at 1,400 × g for 30 min at 4 °C. […]

[7] = test system: alkylphenol-binding proteins within synaptosomes; experiment: Fluorescent profiling: protection from AziPm-click (1) photolabeling of synaptosomes; design: species or system mouse; settings: propofol 75–375 μM; ketamine 150–450 μM; triplicate
Method: as §2

| Structure (SMILES) | half-life (t½) of time-dependent photoreactivity [1] [min] | EC50 (X. laevis tadpoles [2]) [µM] | observable toxicity in tadpoles (X. laevis tadpoles [2]) | pharmacological end point in tadpoles (X. laevis tadpoles [2]) | Density [3] [g/mL] | immobility after drug washout (X. laevis tadpoles [4]) | Hill slope (mean ± S.E.), 1-AMA displacement (horse spleen apoferritin [5]) | Kd (horse spleen apoferritin [5]; fluorescence data derived from the Cheng-Prusoff equation, read-out: KD (95% CI), 1-AMA displacement) [µM] | Kd (horse spleen apoferritin [6]) [µM] | protection of GABAA receptor α and β subunits from AziPm-click (1) capture (GABAA receptor subunits) | Kd (horse spleen apoferritin [5]) [µM] | fluorescent labeling of synaptosomal proteins by AziPm-click (1) in presence of protecting ligand [7] |
| --- | --- | --- | --- | --- | --- | --- | --- | --- | --- | --- | --- | --- |
| C#CCOCc1ccc(C2(C(F)(F)F)N=N2)cc1O [AziPm-click (1), 2-((prop-2-yn-1-yloxy)methyl)-5-(3-(trifluoromethyl)-3H-diazirin-3-yl)phenol] | 25 | 6.1 | no observable toxicity | reversible hypnosis | 1.19 | prolonged immobility after drug washout | −0.97 ± 0.39 | 4 | 22 | – | – | – |
| CC(C)c1cccc(C(C)C)c1O [propofol, 2,6-diisopropylphenol, reference compound] | – | 0.9 | no observable toxicity | reversible hypnosis | 0.96 | – | −1.1 ± 0.33 | – | 9 | significant decreases in capture efficiency | 2.4 | decreased |

— publication PMC5034043 (The Journal of Biological Chemistry, 2016)
